In patent publication EP0562479A1, “1-Phenyl-5-heterocyclic-1H-1, 2,4-triazole-3-carboxamide derivates, process for preparation of the same, and fungicidal composition comprising the same” (KUREHA CHEMICAL INDUSTRY CO., LTD., priority 1992, dated 1993):

System: Botrytis cinerea
Experiment: Test for controlling effect against cucumber gray mold
Assay type: in vivo, Botrytis cinerea on cucumber
Settings: wettable powder sprayed 5 ml per pot, lesion areas three days after inoculation
Method: Test Example 1 〈Test for controlling effect against cucumber gray mold (Botrytis cinerea on cucumber)〉 A wettable powder similar to that prepared in Formulation Example 2, diluted with water to a prescribed concentration, was sprayed onto the cucumber plants of the first leaf stage (variety: […], one plant per pot) growing in an unglazed pot (diameter: 10 cm), in an amount of 5 ml per pot. After drying the sprayed leaves in the air, a circular cutting (diameter: 4 mm) of agar containing Botrytis cinerea, which had been cultured in advance in a potato-sucrose agar medium at 20°C for 3 days, was attached directly to the center part of the leaves, and the pots maintained at 20-22°C under high humidity conditions. Three days after the inoculation, lesion areas of the disease were examined to calculate the inhibition rate according to the following equation. [formula]

| SMILES | Inhibition rate (%) at concentration of 500 ppm Cucumber gray mold |
| --- | --- |
| CCCCOC(c1cccc(-n2nc(C(N)=O)nc2-c2cccc(C)n2)c1)C(C)C (centres unmarked) [Compound 7, 1-[3-[(1-butoxy-2-methyl)propyl]phenyl]-5-(6-methylpyridin-2-yl)-1H-1,2,4-triazole-3-carboxamide] | 95% |
| CCCCOC(c1cccc(-n2nc(C(N)=O)nc2-c2sccc2C)c1)C(C)C (centres unmarked) [Compound 16, 1-[3-[(1-butoxy-2-methyl)propyl]phenyl]-5-(3-methylthiophen-2-yl)-1H-1,2,4-triazole-3-carboxamide] | 94% |
